Laboratory results from paper PMC8708872, “Discovery of a Novel Template, 7-Substituted 7-Deaza-4′-Thioadenosine Derivatives as Multi-Kinase Inhibitors” (Pharmaceuticals, 2021).

What was measured:
CK1δ = target: T1, CK1δ (Homo sapiens, UniProt P48730); test: Kinase inhibition profile, KINOMEscan 11-point dose response; assay type: binding; conditions: for IC50: 11-point 3-fold serial dilution; for Ki: by Cheng-Prusoff equation
T1 construct: purchased Eurofins DiscoverX Corporation

DYRK1B = target: T2, DYRK1B (Homo sapiens, UniProt Q9Y463); test: as above; assay type: binding; conditions: for IC50: 11-point 3-fold serial dilution; for Ki: by Cheng-Prusoff equation
T2 construct: purchased Eurofins DiscoverX Corporation

DYRK1A = target: T3, DYRK1A (Homo sapiens, UniProt Q13627); test: as above; assay type: binding; conditions: for IC50: 11-point 3-fold serial dilution; for Ki: by Cheng-Prusoff equation
T3 construct: purchased Eurofins DiscoverX Corporation

TRKA = target: T4, TRKA (Homo sapiens, UniProt P04629); test: as above; assay type: binding; conditions: for IC50: 11-point 3-fold serial dilution; for Ki: by Cheng-Prusoff equation
T4 construct: purchased Eurofins DiscoverX Corporation

A549 = test: SRB cell proliferation inhibition assay; assay type: cell-based; conditions: human lung cancer cells, 72 h
Description: (§1) Human lung cancer cells (A549), colorectal cancer (HCT116) cells, breast cancer cells (MDA-MB-231), liver cancer cells (SK-HEP-1), and prostate cancer cells (PC-3) were purchased from the American Type Culture Collection (Manassas, VA, USA). Human gastric cancer cells (SNU-638) were purchased from the Korean Cell Line Bank (Seoul, Korea). Cells were cultured in medium (Dulbecco’s modified Eagle’s medium for MDA-MB-231 and SK-HEP-1 cells; Roswell Park Memorial Institute 1640 for A549, HCT116, SNU-638, PC-3 cells) supplemented with penicillin-streptomycin and 10% fetal bovine serum at 37 °C in a humidified incubator with 5% carbon dioxide. Cells were seeded at a density of 4–7 × 10^4 cells/mL in 96-well culture plates, and then treated with indicated compounds for 72 h. At the end of the experiment, cells were fixed with 10% trichloroacetic acid (TCA) solution and subjected to sulforhodamine B (SRB) assay to determine cell proliferation. The percentage of cell proliferation was calculated with the following formula:Cell proliferation (%) = 100 × [(A treated − A zero day)/(A control − A zero day)], where A is the average absorbance. The IC50 values were calculated through non-linear regression analysis using TableCurve 2D v5.01 (Systat Software Inc., San Jose, CA, USA). All experiments were performed in triplicate and data shown are representative of two or three independent experiments.

MDA-MB-231 = test: SRB cell proliferation inhibition assay; assay type: cell-based; conditions: human breast cancer cells, 72 h
Description: as §1

SNU638 = test: SRB cell proliferation inhibition assay; assay type: cell-based; conditions: SNU-638, human stomach cancer cells, 72 h
Description: as §1

HCT116 = test: SRB cell proliferation inhibition assay; assay type: cell-based; conditions: HCT-116, human colon cancer cells, 72 h
Description: as §1

SK-HEP-1 = test: SRB cell proliferation inhibition assay; assay type: cell-based; conditions: SK-HEP1, human liver cancer cells, 72 h
Description: as §1

PC-3 = test: SRB cell proliferation inhibition assay; assay type: cell-based; conditions: human prostate cancer cells, 72 h
Description: as §1

T4 sequence (P04629 33-796): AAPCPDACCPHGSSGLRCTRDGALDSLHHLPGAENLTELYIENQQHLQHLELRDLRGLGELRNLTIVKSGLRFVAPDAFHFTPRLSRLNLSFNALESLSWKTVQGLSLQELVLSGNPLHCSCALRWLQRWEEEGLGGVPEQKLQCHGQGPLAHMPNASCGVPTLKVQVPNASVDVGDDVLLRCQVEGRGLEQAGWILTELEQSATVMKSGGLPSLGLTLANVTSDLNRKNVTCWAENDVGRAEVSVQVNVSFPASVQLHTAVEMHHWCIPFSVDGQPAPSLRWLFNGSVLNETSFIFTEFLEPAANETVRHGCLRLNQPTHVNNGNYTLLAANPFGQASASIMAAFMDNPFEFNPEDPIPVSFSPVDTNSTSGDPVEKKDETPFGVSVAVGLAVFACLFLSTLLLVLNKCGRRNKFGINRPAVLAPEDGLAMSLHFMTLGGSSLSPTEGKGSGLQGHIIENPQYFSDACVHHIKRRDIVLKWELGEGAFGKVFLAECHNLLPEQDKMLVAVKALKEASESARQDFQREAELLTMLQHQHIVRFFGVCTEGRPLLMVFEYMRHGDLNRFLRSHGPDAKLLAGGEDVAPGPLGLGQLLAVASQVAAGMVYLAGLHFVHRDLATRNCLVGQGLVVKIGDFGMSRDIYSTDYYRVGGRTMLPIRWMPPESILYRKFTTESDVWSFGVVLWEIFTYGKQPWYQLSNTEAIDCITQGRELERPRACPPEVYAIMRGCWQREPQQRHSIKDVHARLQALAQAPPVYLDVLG
T2 sequence (Q9Y463 whole entry): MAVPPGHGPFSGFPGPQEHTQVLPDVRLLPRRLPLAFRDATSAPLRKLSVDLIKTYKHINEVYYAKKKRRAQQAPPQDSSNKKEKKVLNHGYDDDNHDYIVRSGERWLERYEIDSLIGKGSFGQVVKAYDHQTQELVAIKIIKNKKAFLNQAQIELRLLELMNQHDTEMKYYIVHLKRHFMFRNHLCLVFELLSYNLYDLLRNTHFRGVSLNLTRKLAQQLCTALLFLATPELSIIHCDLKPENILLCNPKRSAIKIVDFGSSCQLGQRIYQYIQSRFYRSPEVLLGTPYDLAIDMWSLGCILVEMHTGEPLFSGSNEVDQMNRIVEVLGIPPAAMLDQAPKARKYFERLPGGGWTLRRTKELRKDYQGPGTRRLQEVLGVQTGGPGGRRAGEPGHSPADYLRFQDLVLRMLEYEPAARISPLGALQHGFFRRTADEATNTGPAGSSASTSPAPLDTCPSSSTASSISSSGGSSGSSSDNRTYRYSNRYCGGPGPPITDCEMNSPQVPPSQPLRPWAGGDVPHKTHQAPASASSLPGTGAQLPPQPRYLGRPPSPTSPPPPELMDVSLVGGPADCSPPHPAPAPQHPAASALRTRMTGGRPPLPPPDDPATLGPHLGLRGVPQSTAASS
T1 sequence (P48730 whole entry): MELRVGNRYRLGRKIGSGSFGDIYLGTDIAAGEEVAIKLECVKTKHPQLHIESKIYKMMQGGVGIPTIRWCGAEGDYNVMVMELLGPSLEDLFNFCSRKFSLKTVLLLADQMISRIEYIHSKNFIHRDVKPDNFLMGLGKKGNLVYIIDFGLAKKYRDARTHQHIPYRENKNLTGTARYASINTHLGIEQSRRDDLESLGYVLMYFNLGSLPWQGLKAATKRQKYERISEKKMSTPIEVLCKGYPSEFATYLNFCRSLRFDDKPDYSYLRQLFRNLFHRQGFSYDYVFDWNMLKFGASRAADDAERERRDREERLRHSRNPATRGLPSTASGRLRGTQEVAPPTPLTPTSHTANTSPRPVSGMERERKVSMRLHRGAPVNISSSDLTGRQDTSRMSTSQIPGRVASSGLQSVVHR

Compound | IC50 (CK1δ) | IC50 (DYRK1B) | Ki (DYRK1B) | IC50 (DYRK1A) | Ki (DYRK1A) | IC50 (TRKA) | Ki (CK1δ) | melting point | Ki (TRKA) | IC50 (A549) | IC50 (MDA-MB-231) | IC50 (SNU638) | IC50 (HCT116) | IC50 (SK-HEP-1) | IC50 (PC-3)
Cc1nccc(-c2cn(Cc3ccccc3)c3cnccc23)n1 [AZ Dyrk1B 33, reference compound] | > 10000 nM | 50 nM | 50 nM | 14 nM | 28 nM | > 10000 nM | – | – | – | – | – | – | – | – | –
Nc1ncnc2c1c(-c1ccco1)cn2[C@@H]1S[C@H](CO)[C@@H](O)[C@H]1O [Compound 1a, (2R,3R,4S,5R)-2-(4-Amino-5-(furan-2-yl)-7H-pyrrolo[2,3-d]pyrimidin-7-yl)-5-(hydroxymethyl)tetrahydrothiophene-3,4-diol] | 123 nM | 14 nM | 14 nM | 15 nM | 30 nM | 37 nM | 123 nM | 197 to 199 °C | 74 nM | 1020 nM | 3310 nM | 1950 nM | 2160 nM | 3380 nM | 2460 nM
Nc1ncnc2c1c(-c1cccs1)cn2[C@@H]1S[C@H](CO)[C@@H](O)[C@H]1O [Compound 1b, (2R,3R,4S,5R)-2-(4-Amino-5-(thiophen-2-yl)-7H-pyrrolo[2,3-d]pyrimidin-7-yl)-5-(hydroxymethyl)tetrahydrothiophene-3,4-diol] | 18 nM | 117 nM | 117 nM | 166 nM | 332 nM | 11 nM | – | 166 to 172 °C | 22 nM | 1650 nM | 2720 nM | 2410 nM | 1740 nM | 1380 nM | 2480 nM
C=Cc1cn([C@@H]2S[C@H](CO)[C@@H](O)[C@H]2O)c2ncnc(N)c12 [Compound 1c, (2R,3R,4S,5R)-2-(4-Amino-5-vinyl-7H-pyrrolo[2,3-d]pyrimidin-7-yl)-5-(hydroxymethyl)tetrahydrothiophene-3,4-diol] | 77 nM | 86 nM | 86 nM | 112 nM | 224 nM | 474 nM | 77 nM | 110 to 112 °C | 948 nM | 970 nM | 310 nM | 470 nM | 560 nM | 220 nM | 200 nM
Nc1ncnc2c1c(-c1ccccc1)cn2[C@@H]1S[C@H](CO)[C@@H](O)[C@H]1O [Compound 1d, (2R,3R,4S,5R)-2-(4-Amino-5-phenyl-7H-pyrrolo[2,3-d]pyrimidin-7-yl)-5-(hydroxymethyl)tetrahydrothiophene-3,4-diol] | 27 nM | 288 nM | 288 nM | 357 nM | 714 nM | 157 nM | 27 nM | 102 to 104 °C | 314 nM | 7570 nM | 8830 nM | 6320 nM | 6350 nM | 7810 nM | 9210 nM
Nc1ncnc2c1c(-c1ccc(N3CCS(=O)(=O)CC3)cc1)cn2C1SC(CO)C(O)C1O (stereo not drawn) [Compound 1e, 4-(4-(4-Amino-7-(3,4-dihydroxy-5-(hydroxymethyl)tetrahydrothiophen-2-yl)-7H-pyrrolo[2,3-d]pyrimidin-5-yl)phenyl)thiomorpholine 1,1-dioxide] | > 10000 nM | > 10000 nM | – | > 10000 nM | – | > 10000 nM | – | 188 to 192 °C | – | > 50000 nM | > 50000 nM | > 50000 nM | > 50000 nM | > 50000 nM | > 50000 nM
CCS(=O)(=O)Nc1ccc(-c2cn(C3SC(CO)C(O)C3O)c3ncnc(N)c23)cc1 (stereo not drawn) [Compound 1f, N-(4-(4-Amino-7-(3,4-dihydroxy-5-(hydroxymethyl)tetrahydrothiophen-2-yl)-7H-pyrrolo[2,3-d]pyrimidin-5-yl)phenyl)ethanesulfonamide] | 910 nM | > 10000 nM | – | > 10000 nM | – | > 10000 nM | 910 nM | 127 to 132 °C | – | 41600 nM | 30100 nM | 27500 nM | 30600 nM | 10300 nM | 15400 nM
CC#Cc1cn([C@@H]2S[C@H](CO)[C@@H](O)[C@H]2O)c2ncnc(N)c12 [Compound 1h, (2R,3R,4S,5R)-2-(4-Amino-5-(prop-1-yn-1-yl)-7H-pyrrolo[2,3-d]pyrimidin-7-yl)-5-(hydroxymethyl)tetrahydrothiophene-3,4-diol] | 970 nM | 1070 nM | 1070 nM | 1260 nM | 2510 nM | 293 nM | 970 nM | 190 to 192 °C | 586 nM | > 50000 nM | 45500 nM | > 50000 nM | > 50000 nM | 6050 nM | > 50000 nM
CCC#Cc1cn([C@@H]2S[C@H](CO)[C@@H](O)[C@H]2O)c2ncnc(N)c12 [Compound 1i, (2R,3R,4S,5R)-2-(4-Amino-5-(but-1-yn-1-yl)-7H-pyrrolo[2,3-d]pyrimidin-7-yl)-5-(hydroxymethyl)tetrahydrothiophene-3,4-diol] | 430 nM | 1340 nM | 1340 nM | 2980 nM | 5960 nM | 573 nM | 430 nM | 161 to 162 °C | 1150 nM | > 50000 nM | > 50000 nM | > 50000 nM | > 50000 nM | > 50000 nM | > 50000 nM
CC(C)(C)C#Cc1cn([C@@H]2S[C@H](CO)[C@@H](O)[C@H]2O)c2ncnc(N)c12 [Compound 1j, (2R,3R,4S,5R)-2-(4-Amino-5-(3,3-dimethylbut-1-yn-1-yl)-7H-pyrrolo[2,3-d]pyrimidin-7-yl)-5-(hydroxymethyl)tetrahydrothiophene-3,4-diol] | 1320 nM | > 10000 nM | – | > 10000 nM | – | 958 nM | 1320 nM | 144 to 146 °C | – | > 50000 nM | 29600 nM | > 50000 nM | > 50000 nM | > 50000 nM | > 50000 nM
Nc1ncnc2c1c(C#CC1CC1)cn2[C@@H]1S[C@H](CO)[C@@H](O)[C@H]1O [Compound 1k, (2R,3R,4S,5R)-2-(4-Amino-5-(cyclopropylethynyl)-7H-pyrrolo[2,3-d]pyrimidin-7-yl)-5-(hydroxymethyl)tetrahydrothiophene-3,4-diol] | 1780 nM | > 10000 nM | – | > 10000 nM | – | 393 nM | 1780 nM | 166 to 168 °C | – | > 50000 nM | 30600 nM | > 50000 nM | > 50000 nM | 8310 nM | > 50000 nM
COc1cc([C@@H]2c3cc4c(cc3[C@@H](O[C@@H]3O[C@@H]5CO[C@@H](C)O[C@H]5[C@H](O)[C@H]3O)[C@H]3COC(=O)[C@H]23)OCO4)cc(OC)c1O [Etoposide, reference compound] | – | – | – | – | – | – | – | – | – | 360 nM | 4900 nM | 410 nM | 1110 nM | 910 nM | 23400 nM
Cc1ccc(NC(=O)Nc2cc(C(F)(F)F)ccc2F)cc1Nc1ccc2c(c1)NC(=O)/C2=C\c1ccc[nH]1 [GNF 5837, reference compound] | > 10000 nM | > 10000 nM | – | > 10000 nM | – | 177 nM | – | – | – | – | – | – | – | – | –
Nc1ccn([C@@H]2O[C@H](CO)[C@@H](O)C2(F)F)c(=O)n1 [Gemcitabine, reference compound] | – | – | – | – | – | – | – | – | – | 300 nM | 1100 nM | 100 nM | 200 nM | 200 nM | 3600 nM
COc1ccc2c(c1)[nH]c1c(C)nccc12 [Harmine, reference compound] | – | – | – | – | – | > 10000 nM | – | – | – | – | – | – | – | – | –
COc1ncc2cc(C(=O)Nc3cc(C(=O)NCc4cccc(Cl)c4)ccc3Cl)c(=O)[nH]c2n1 [TC-S 7004, reference compound] | > 10000 nM | 22 nM | 22 nM | < 10 nM | – | > 10000 nM | – | – | – | – | – | – | – | – | –
LH 846 [reference compound] | 80 nM | > 10000 nM | – | > 10000 nM | – | > 10000 nM | – | – | – | – | – | – | – | – | –
